Laboratory results taken from patent publication US11873290B2, “Pyridazinone compounds and uses thereof” (Edgewise Therapeutics, Inc., priority 2018, dated 2024).

What follows are compounds tested against skeletal myofibrils (myosin ATPase activity) (assay: Skeletal Myofibril ATPase Assay). Settings: PK-LDH coupled, absorbance at 340 nm.
Format: biochemical
Experimental: Overview: Myosin ATPase activity is assessed by using a coupled reaction system, in which ADP generated by the myosin ATPase function is coupled to the disappearance of NADH through the pyruvate kinase/lactate dehydrogenase (PK-LDH) system. Myosin ATPase activity produces ADP, which is used as a substrate for PK to produce pyruvate and regenerate ATP. The pyruvate is then used as a substrate by LDH to oxidize NADH to NAD+. The rate of the reaction is monitored through the time-dependent disappearance of NADH using absorbance at 340 nm. Inhibition of ATPase activity by the assayed compounds is indicated by a reduced rate of NADH loss, relative to vehicle-treated controls, over the experimental time window. To assess the selectivity of the assayed compounds for skeletal myofibrils, the compounds are counter-screened in cardiac myofibrils.
Materials: The following stock solutions and reagents were used in the Skeletal Myofibril ATPase Assay:
Stock Solutions of pCa buffer. Combine PIPES, CaCl2, and EGTA solutions with 70 mL of water. Adjust pH to 7.0 and bring final volume to 100 mL.
Skeletal Myofibril ATPase Assay Procedure: BSA, ATP, NADH, PEP, and DTT solutions were thawed at room temperature, then transferred to ice. Pellet-frozen myofibrils (approximately twice the required volume) were transferred into a sufficiently large tube and capped. Myofibrils were thawed by rolling in a water bath for approximately 15 min at room temperature and cooled on ice. Buffers A and B were prepared by adjusting volumes as necessary for required number of wells and stored on ice. 0.5 μL of the compounds to be assayed were added into wells of a 384-well plate. Buffers A and B were mixed by inversion immediately prior to use, then 25 μL of each was dispensed using a Multidrop dispenser (Buffer A first, then Buffer B). The absorbance within the wells was measured at 340 nm, using a kinetic protocol in which the wells are read every 1.5-2 min for 1 h. The reaction rate was qualitatively assessed by subtracting the minimum absorbance value from the maximum value for each well, using either the SoftMax Pro plate reader software or a spreadsheet program such as Excel. Using GraphPad Prism 8.0, the data was normalized, with 100% activity defined as the absorbance change in the 1% DMSO vehicle wells and 0% assigned to no change in absorbance over the course of the experiment. The normalized data were fit to a variable-slope four-parameter logistic model, constraining the bottom to be 0 or greater. Compounds of Table 1 to 4 were tested and results of the assay appear in Table 5 herein. A=IC50 is less than or equal to 10 μM; B=IC50 is greater than 10 μM and less than 100 μM; C=IC50 is greater than 100 μM; […].

Question: With `O=c1ccc(-c2ccc(OC(F)F)cc2)nn1Cc1nccn1CC(F)(F)F` [Compound 226, 6-(4-(difluoromethoxy)phenyl)-2-((1-(2,2,2-trifluoroethyl)-1H-imidazol-2-yl)methyl)pyridazin-3(2H)-one] as the compound, how does the IC50 read?
Answer: Its IC50 is over 100 µM.

Question: Which IC50 does the source give for `O=c1ccc(-c2cnc(OCC3COC3)nc2)nn1Cc1cncc(F)c1` [Compound 103, 2((5-fluoropyridin-3-yl)methyl)-6-(2-(oxetan-3-ylmethoxy)pyrimidin-5-yl)pyridazine-3(2H)-one] here?
Answer: The IC50 was under 10 µM.

Question: How did the IC50 turn out when `COc1cncc(Cn2nc(-c3cnc(OCC(F)(F)F)nc3)ccc2=O)c1` [Compound 128, 2-((5-methoxypyridin-3-yl)methyl)-6-(2-(2,2,2-trifluoroethoxy)pyrimidin-5-yl)pyridazine-3(2H)-one] was run?
Answer: The IC50 was under 10 µM.

Question: `O=c1ccc(-c2ccc(OC(F)F)cc2)nn1Cc1nnc(C(F)(F)F)s1` [Compound 229, 6-(4-(difluoromethoxy)phenyl)-2-((5-(trifluoromethyl)-1,3,4-thiadiazol-2-yl)methyl)pyridazin-3(2H)-one] was tested. Which IC50 did it give?
Answer: Its IC50 is over 100 µM.

Question: With `O=c1ccc(-c2ccc(OC(F)F)cc2)nn1Cc1nnc(C(F)(F)F)[nH]1` [Compound 236, 6-(4-(difluoromethoxy)phenyl)-2-((5-(trifluoromethyl)-4H-1,2,4-triazol-3-yl)methyl)pyridazin-3(2H)-one] as the compound, how does the IC50 read?
Answer: The IC50 was over 100 µM.

Question: Which IC50 does the source give for `CC(F)(F)COc1ncc(-c2ccc(=O)n(Cc3cncc(F)c3)n2)cn1` [Compound 113, 6-(2-(2,2-difluoropropoxy)pyrimidin-5-yl)-2-((5-fluoropyridin-3-yl)methyl)pyridazine-3(2H)-one] here?
Answer: Its IC50 is under 10 µM.

Question: Which IC50 does the source give for `CC1CCCN1c1ncc(-c2ccc(=O)n(Cc3cncc(F)c3)n2)cn1` (stereo not drawn) [Compound 28, 2-((5-fluoropyridin-3-yl)methyl)-6-(2-(2-methylpyrrolidin-l-yl)pyrimidin-5-yl)pyridazin-3(2H)-one] here?
Answer: Its IC50 is under 10 µM.

Question: For `O=c1ccc(-c2cnc(OCC(F)(F)F)nc2)nn1Cc1cnc(C(F)F)s1` [Compound 105], which IC50 is on record?
Answer: Its IC50 is under 10 µM.

Question: Which IC50 does the source give for `COCc1cc(Cn2nc(-c3cnc(OCC(F)(F)F)nc3)ccc2=O)on1` [Compound 56, 2-((3-(methoxymethyl)isoxazol-5-yl)methyl)-6-(2-(2,2,2-trifluoroethoxy)pyrimidin-5-yl)pyridazin-3(2H)-one] here?
Answer: Its IC50 is under 10 µM.

Question: For `O=c1ccc(-c2ccc(OC(F)F)cc2)nn1Cc1nnc(C2CC2)[nH]1` [Compound 228, 2-((5-cyclopropyl-4H-1,2,4-triazol-3-yl)methyl)-6-(4-(difluoromethoxy)phenyl)-pyridazin-3(2H)-one], which IC50 is on record?
Answer: The IC50 was over 100 µM.

Question: Which IC50 does the source give for `COc1ccc(-c2ccc(=O)n(Cc3cc(=O)n4ccccc4n3)n2)cc1` [Compound 307, 2-((3-(4-methoxyphenyl)-6-oxopyridazin-1(6H)-yl)methyl)-4H-pyrido[1.2-a]pyrimidin-4-one] here?
Answer: Its IC50 is 10 to 100 µM.

Question: `O=c1ccc(-c2cnc(OCC(F)(F)F)nc2)nn1Cc1nnc(-c2ccccc2)s1` [Compound 94, 2-((5-phenyl-1,3,4-thiadiazol-2-yl)methyl)-6-(2-(2,2,2-trifluoroethoxy)pyrimidin-5-yl)pyridazin-3(2H)-one] was tested. Which IC50 did it give?
Answer: The IC50 was under 10 µM.

Question: For `CCc1ncc(Cn2nc(-c3cnc(OCC(C)(F)F)nc3)ccc2=O)s1` [Compound 129, 6-(2-(2,2-difluoropropoxy)pyrimidin-5-yl)-2((2-ethylthiazol-5-yl)methyl)pyridazine-3(2H)-one], which IC50 is on record?
Answer: Its IC50 is under 10 µM.

Question: With `O=c1ccc(-c2cnc(OCc3ccccc3)nc2)nn1Cc1cncc(F)c1` [Compound 138] as the compound, how does the IC50 read?
Answer: Its IC50 is under 10 µM.

Question: For `O=c1ccc(-c2cnc(OCC(F)(F)F)nc2)nn1Cc1nc2cc(F)ccc2o1` [Compound 55, 2-((5-fluorobenzo[d]oxazol-2-yl)methyl)-6-(2-(2,2,2,- trifluoroethoxy)pyrimidin-5-yl)pyridazin-3(2H)-one], which IC50 is on record?
Answer: Its IC50 is under 10 µM.

Question: How did the IC50 turn out when `O=c1ccc(-c2cnc(OCC3CCC3)nc2)nn1Cc1cncc(F)c1` [Compound 126, 6-(2-(cyclobutylmethoxy)pyrimidin-5-yl)-2-((5-fluoropyridin-3-yl)methyl)pyridazine-3(2H)-one] was run?
Answer: The IC50 was under 10 µM.

Question: For `Nc1nnc(Cn2nc(-c3ccc(OC(F)F)cc3)ccc2=O)o1` [Compound 235, 2-((5-amino-1,3,4-oxadiazol-2-yl)methyl)-6-(4-(difluoromethoxy)phenyl)-pyridazin-3(2H)-one], which IC50 is on record?
Answer: Its IC50 is over 100 µM.

Question: For `CCCOc1ncc(-c2ccc(=O)n(Cc3cnc(CC)s3)n2)cn1` [Compound 112, 2-((2-ethylthiazol-5-yl)methyl)-6-(2-propoxypyrimidin-5-yl)pyridazine-3(2H)-one], which IC50 is on record?
Answer: Its IC50 is under 10 µM.

Question: `C/C=C\c1ncc(-c2ccc(=O)n(Cc3cncc(F)c3)n2)cn1` [Compound 352, (Z)-2-((5-fluoropyridin-3-yl)methyl)-6-(2-(prop-1-en-1-yl)pyrimidin-5-yl)pyridazin-3(2H)-one] was tested. Which IC50 did it give?
Answer: The IC50 was under 10 µM.

Question: Which IC50 does the source give for `Cc1noc(Cn2nc(-c3ccc(OC(F)F)cc3)ccc2=O)n1` [Compound 216, 6-(4-(difluoromethoxy)phenyl)-2-((3-methyl-1,2,4-oxadiazol-5-yl)methyl)pyridazin-3(2H)-one] here?
Answer: Its IC50 is 10 to 100 µM.

Question: For `Cc1ccc(Cn2nc(-c3cnc(OCC(F)(F)F)nc3)ccc2=O)nn1` [Compound 41, 2-((6-methylpyridazin-3-yl)methyl)-6-(2-(2,2,2-trifluoroethoxy)pyrimidin-5-yl)pyridazin-3(2H)-one], which IC50 is on record?
Answer: The IC50 was under 10 µM.

Question: `COc1ccc(-c2ccc(=O)n(Cc3nc(-c4ccc(OC)cc4)no3)n2)cc1` [Compound 315, 6-(4-methoxyphenyl)-2-((3-(4-methoxyphenyl)-1,2,4-oxadiazol-5-yl)methyl)pyridazin-3(2H)-one] was tested. Which IC50 did it give?
Answer: The IC50 was under 10 µM.

Question: With `CCc1cc(Cn2nc(-c3ccc(OC(F)F)cc3)ccc2=O)on1` [Compound 209, 6-(4-(difluoromethoxy)phenyl)-2-((3-ethylisoxazol-5 - yl)methyl)pyridazin-3(2H)-one] as the compound, how does the IC50 read?
Answer: The IC50 was under 10 µM.

Question: `O=c1ccc(-c2ccc(OC(F)F)cc2)nn1Cc1ccc(Cl)cn1` [Compound 211, 2-((5-chloropyridin-2-yl)methyl)-6-(4-(difluoromethoxy)phenyl)-pyridazin-3(2H)-one] was tested. Which IC50 did it give?
Answer: Its IC50 is 10 to 100 µM.

Question: With `O=c1ccc(-c2cnc(N3CCCC3C(F)(F)F)nc2)nn1Cc1cncc(F)c1` (stereo not drawn) [Compound 54, 2-((5-fluoropyridin-3-yl)methyl)-6-(2-(2-(trifluoromethyl)pyrrolidin-l-yl)pyrimidin-5-yl)pyridazin-3(2H)-one] as the compound, how does the IC50 read?
Answer: The IC50 was under 10 µM.

Question: For `Cc1ncc(-c2ccc(=O)n(Cc3cncc(F)c3)n2)cn1` [Compound 351], which IC50 is on record?
Answer: Its IC50 is 10 to 100 µM.

Question: How did the IC50 turn out when `O=c1ccc(-c2ccc(OC(F)F)nc2)nn1Cc1[nH]ncc1-c1ccccc1` [Compound 25, 6-(6-(difluoromethoxy)pyridin-3-yl)-2-((4-phenyl-1H-pyrazol-5-yl)methyl) pyridazin-3(2H)-one] was run?
Answer: The IC50 was over 100 µM.

Question: `O=c1ccc(-c2cnc(OCC(F)(F)F)nc2)nn1Cc1nnc(N2CCCCC2)s1` [Compound 95, 2-((5-(piperidin-1-yl)-1,3,4-thiadiazol-2-yl)methyl)-6-(2-(2,2,2-trifluoroethoxy)pyrimidin-5-yl)pyridazin-3(2H)-one] was tested. Which IC50 did it give?
Answer: The IC50 was under 10 µM.

Question: `O=c1ccc(-c2cnc(OCC(F)(F)F)nc2)nn1Cc1nnc(-c2cccnc2)s1` [Compound 40, 2-((5-(pyridin-3-yl)-1,3,4-thiadiazol-2-yl)methyl)-6-(2-(2,2,2-trifluoroethoxy)pyrimidin-5-yl)pyridazin-3(2H)-one] was tested. Which IC50 did it give?
Answer: The IC50 was under 10 µM.

Question: With `Cc1ccc(-c2ccc(=O)n(Cc3nc(-c4cccc(Cl)c4)no3)n2)cc1` [Compound 314, 2-((3-(3-chlorophenyl)-1,2,4-oxadiazol-5-yl)methyl)-6-(p-tolyl)pyridazin-3(2H)-one] as the compound, how does the IC50 read?
Answer: The IC50 was over 100 µM.

Question: How did the IC50 turn out when `O=c1ccc(-c2cnc(OCC(F)(F)F)nc2)nn1Cc1nnc(-c2ccccn2)s1` [Compound 38, 2-((5-(pyridin-2-yl)-1,3,4-thiadiazol-2-yl)methyl)-6-(2-(2,2,2-trifluoroethoxy)pyrimidin-5-yl)pyridazin-3(2H)-one] was run?
Answer: The IC50 was under 10 µM.

Question: How did the IC50 turn out when `Cc1ccc(-c2ccc(=O)n(Cc3cc(=O)n4ccccc4n3)n2)cc1` [Compound 311, 2-((6-oxo-3-(p-tolyl)pyridazin-1(6H)-yl)methyl)-4H-pyrido[1,2-a]pyrimidin-4-one] was run?
Answer: Its IC50 is 10 to 100 µM.

Question: How did the IC50 turn out when `COC(=O)c1ccc(Cn2nc(-c3ccc(SC)cc3)ccc2=O)o1` [Compound 302, methyl 5-((3-(4-(methylthio)phenyl)-6-oxopyridazin-1(6H)-yl)methyl)furan-2-carboxylate] was run?
Answer: The IC50 was 10 to 100 µM.

Question: `Cc1cc(Cn2nc(-c3ccc(OC(F)F)cc3)ccc2=O)on1` [Compound 204, 6-(4-(difluoromethoxy)phenyl)-2-((3-methylisoxazol-5-yl)methyl)pyridazine-3(2H)-one] was tested. Which IC50 did it give?
Answer: Its IC50 is under 10 µM.
